How the values were obtained:
[1] = biological target: phosphorylated FGFR3 (SEQ ID NO: 5, amino acids 449 to 759) (Homo sapiens (Human), UniProt P22607); assay: FGFR enzyme binding assay (HTRF tracer displacement), FGFR3; details: 5 nM phosphorylated FGFR3, average of multiple determinations if made
Outline: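 Compounds were tested for displacement of a tracer from human FGFR kinase in a time-resolved FRET binding format. After 60 minutes at 22° C, signal was read at two wavelengths and converted to percent of control, normalised between untreated wells and 1 μM reference inhibitor.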

[2] = biological target: recombinant human FGFR1 catalytic domain (amino acids 308-731) (Homo sapiens (Human), UniProt P11362); assay: FGFR1 enzyme activity assay (LanthaScreen TR-FRET); assay type: biochemical; details: 20 min incubation at 22° C., average of multiple determinations if made, read-out: FGFR1 Enz FRET IC50
Chain of recombinant human FGFR1 catalytic domain (amino acids 308-731) (P11362 other isoform, or with tags, fused parts or gaps): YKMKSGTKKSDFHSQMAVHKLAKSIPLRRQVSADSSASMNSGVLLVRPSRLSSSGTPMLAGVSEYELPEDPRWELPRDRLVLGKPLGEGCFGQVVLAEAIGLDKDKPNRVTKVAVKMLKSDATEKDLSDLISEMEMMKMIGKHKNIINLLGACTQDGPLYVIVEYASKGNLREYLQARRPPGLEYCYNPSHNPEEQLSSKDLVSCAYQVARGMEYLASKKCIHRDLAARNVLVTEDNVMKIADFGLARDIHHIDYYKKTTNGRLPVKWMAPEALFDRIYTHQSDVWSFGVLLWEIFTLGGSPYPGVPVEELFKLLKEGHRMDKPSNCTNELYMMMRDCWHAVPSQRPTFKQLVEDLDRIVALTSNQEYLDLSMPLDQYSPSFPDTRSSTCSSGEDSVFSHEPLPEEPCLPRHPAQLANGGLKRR
Outline: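 His-tagged FGFR1 kinase domain with 100 nM Alexa Fluor 647-poly-GT peptide and ATP in pH 7.5 HEPES/MgCl2 buffer with 2% DMSO, 20 min at 22 °C. Quenched with EDTA plus 2 nM Eu-PY20 antibody and read after 60 min. IC50 comes from a 4-parameter fit of percent of control.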

[3] = biological target: FGFR3 (SEQ ID NO: 5, amino acids 449-759) (Homo sapiens (Human), UniProt P22607); assay: LC/MS FGFR3 kobs assay (covalent protein modification); assay type: binding; details: 500 nM FGFR3, 3 μM compound
Chain of FGFR3 (SEQ ID NO: 5, amino acids 449-759) (P22607 449-759): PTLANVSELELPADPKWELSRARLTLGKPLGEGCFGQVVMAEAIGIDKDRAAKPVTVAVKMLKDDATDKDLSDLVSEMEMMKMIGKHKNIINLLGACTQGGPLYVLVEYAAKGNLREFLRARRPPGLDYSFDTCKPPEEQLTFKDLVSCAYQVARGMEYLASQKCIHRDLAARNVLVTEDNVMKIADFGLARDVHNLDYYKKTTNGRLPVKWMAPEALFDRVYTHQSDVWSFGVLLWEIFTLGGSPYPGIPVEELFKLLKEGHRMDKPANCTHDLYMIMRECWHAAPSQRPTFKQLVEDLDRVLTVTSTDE
Outline: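 The observed rate constant kobs comes from an exponential decay fit of percent unmodified kinase over time. Covalent modification was quantified by Q-TOF LC/MS of formic acid-quenched samples, normalized against DMSO controls.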

[4] = biological target: HEK-293 cells transfected with dox-inducible human wild type FGFR3 (Homo sapiens (Human), UniProt P22607); assay: FGFR3 pERK cell assay; assay type: cell-based; details: HEK-293 dox-inducible FGFR3, 1 hour compound, 100 ng/ml FGF-acidic; maximum concentration 5 μM
Chain of HEK-293 cells transfected with dox-inducible human wild type FGFR3 (P22607 23-806): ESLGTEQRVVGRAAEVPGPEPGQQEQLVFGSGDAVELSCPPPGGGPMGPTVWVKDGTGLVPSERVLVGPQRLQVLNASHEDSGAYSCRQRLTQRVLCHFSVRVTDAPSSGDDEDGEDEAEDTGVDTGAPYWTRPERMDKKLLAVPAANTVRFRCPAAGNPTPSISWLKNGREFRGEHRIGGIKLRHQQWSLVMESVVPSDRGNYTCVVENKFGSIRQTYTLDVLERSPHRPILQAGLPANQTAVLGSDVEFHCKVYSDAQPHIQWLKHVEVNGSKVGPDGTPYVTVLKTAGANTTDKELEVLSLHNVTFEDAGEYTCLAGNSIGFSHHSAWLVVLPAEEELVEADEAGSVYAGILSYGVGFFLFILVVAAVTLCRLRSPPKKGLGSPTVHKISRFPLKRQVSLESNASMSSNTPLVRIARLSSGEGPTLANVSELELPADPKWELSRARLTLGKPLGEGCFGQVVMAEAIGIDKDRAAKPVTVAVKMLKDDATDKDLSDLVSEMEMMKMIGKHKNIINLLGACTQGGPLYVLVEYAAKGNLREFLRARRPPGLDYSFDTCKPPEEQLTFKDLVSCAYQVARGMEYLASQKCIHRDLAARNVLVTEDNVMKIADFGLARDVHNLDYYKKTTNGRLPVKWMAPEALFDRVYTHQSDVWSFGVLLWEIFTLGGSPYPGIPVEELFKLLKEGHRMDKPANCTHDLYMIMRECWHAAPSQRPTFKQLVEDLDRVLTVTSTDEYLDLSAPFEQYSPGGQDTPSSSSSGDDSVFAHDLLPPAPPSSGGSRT
Outline: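 Doxycycline-induced cells preincubated 1 h at 37 °C with compound (1:3 dilutions, top 5 μM final), then stimulated 5 min with 100 ng/ml FGF-acidic. Lysate phospho-ERK1/2 measured by MSD sandwich assay; IC50 at 50 POC from 4-parameter fit, normalised to no-compound and control-compound wells.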

[5] = biological target: HEK-293 cells transfected with dox-inducible human wild type FGFR1 (Homo sapiens (Human), UniProt P11362); assay: FGFR1 pERK cell assay; assay type: cell-based; details: HEK-293 dox-inducible FGFR1, 1 hour compound, 100 ng/ml FGF-acidic; maximum concentration 5 μM
Chain of HEK-293 cells transfected with dox-inducible human wild type FGFR1 (P11362 22-822): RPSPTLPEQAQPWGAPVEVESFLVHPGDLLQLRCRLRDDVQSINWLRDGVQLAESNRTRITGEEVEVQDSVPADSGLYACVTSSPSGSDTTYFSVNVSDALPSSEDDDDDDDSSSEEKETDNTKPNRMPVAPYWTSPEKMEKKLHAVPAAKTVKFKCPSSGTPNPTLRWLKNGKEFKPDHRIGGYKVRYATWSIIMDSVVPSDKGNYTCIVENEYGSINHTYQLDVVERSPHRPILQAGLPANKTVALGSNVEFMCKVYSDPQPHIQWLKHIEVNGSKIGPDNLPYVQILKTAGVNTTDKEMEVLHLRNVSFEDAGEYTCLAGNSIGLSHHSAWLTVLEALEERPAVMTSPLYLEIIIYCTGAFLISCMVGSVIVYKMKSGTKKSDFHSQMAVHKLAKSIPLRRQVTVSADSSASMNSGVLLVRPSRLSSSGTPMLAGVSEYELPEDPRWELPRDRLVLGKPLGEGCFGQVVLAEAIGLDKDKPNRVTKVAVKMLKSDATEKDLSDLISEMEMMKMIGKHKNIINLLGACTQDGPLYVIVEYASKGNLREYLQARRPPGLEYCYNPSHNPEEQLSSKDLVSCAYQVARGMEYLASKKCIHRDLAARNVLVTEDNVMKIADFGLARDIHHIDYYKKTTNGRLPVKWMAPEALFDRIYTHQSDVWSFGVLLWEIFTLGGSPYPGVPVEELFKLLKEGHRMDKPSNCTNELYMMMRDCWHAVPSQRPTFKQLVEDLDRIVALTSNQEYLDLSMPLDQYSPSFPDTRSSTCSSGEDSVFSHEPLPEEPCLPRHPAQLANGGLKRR
Outline: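 In HEK-293 cells with dox-induced human wild-type FGFR1, compounds (1:3 dilutions, top 5 μM final) were applied 1 h at 37°C before 5 min stimulation with 100 ng/ml FGF-acidic. Phospho-ERK1/2 measured by MSD sandwich immunoassay; IC50 from 4-parameter fit of POC versus vehicle and control compound.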

Chain of phosphorylated FGFR3 (SEQ ID NO: 5, amino acids 449 to 759) (P22607 449-759): as the sequence (P22607 449-759) above

Row | Structure (SMILES) | IC50 [1] | IC50 [2] | FGFR3 Enz kobs [3] | IC50 [4] | IC50 [5]
1 | COc1cc(-c2cnn(C3CCN(C(=O)C4(F)CN(C(=O)/C=C/CN(C)C)C4)CC3)c2C)cn2ncc(C#N)c12 [Example 153, (E)-6-(1-(1-(1-(4-(dimethylamino)but-2-enoyl)-3-fluoroazetidine-3-carbonyl)piperidin-4-yl)-5-methyl-1H-pyrazol-4-yl)-4-methoxypyrazolo [1,5-a]pyridine-3-carbonitrile] | 0.002 µM | 0.039 µM | 0.1578 min⁻¹ | 0.025 µM | 0.002 µM
2 | COC/C=C/C(=O)N1CC(F)(C(=O)N2CCC(n3ncc(-c4cc(OC)c5c(C#N)cnn5c4)c3C)CC2)C1 [Example 154, (E)-6-(1-(1-(3-fluoro-1-(4-methoxybut-2-enoyl)azetidine-3-carbonyl)piperidin-4-yl)-5-methyl-1H-pyrazol-4-yl)-4-methoxypyrazolo [1,5-a]pyridine-3-carbonitrile] | 0.019 µM | 0.335 µM | 0.00747 min⁻¹ | 0.122 µM | 2.63 µM
3 | CC#CC(=O)N1CC(F)(C(=O)N2CCC(n3ncc(-c4cc(OC)c5c(C#N)cnn5c4)c3C)CC2)C1 [Example 156, 6-(1-(1-(1-(but-2-ynoyl)-3-fluoroazetidine-3-carbonyl)piperidin-4-yl)-5-methyl-1H-pyrazol-4-yl)-4-methoxypyrazolo [1,5-a]pyridine-3-carbonitrile] | 0.018 µM | 0.375 µM | 0.00585 min⁻¹ | 0.091 µM | 3.11 µM
4 | COc1cc(-c2cnn(C3CCN(C(=O)C4(C)CN(C(=O)/C=C/CN(C)C)C4)CC3)c2C)cn2ncc(C#N)c12 [Example 157, (E)-6-(1-(1-(1-(4-(dimethylamino)but-2-enoyl)-3-methylazetidine-3-carbonyl)piperidin-4-yl)-5-methyl-1H-pyrazol-4-yl)-4-methoxypyrazolo [1,5-a]pyridine-3-carbonitrile] | 0.006 µM | 0.09 µM | 0.03267 min⁻¹ | 1.15 µM | ≥ 5 µM
5 | COc1cc(-c2cnn(C3CCN(C(=O)C4(OC)CN(C(=O)/C=C/CN(C)C)C4)CC3)c2C)cn2ncc(C#N)c12 [Example 158, (E)-6-(1-(1-(1-(4-(dimethylamino)but-2-enoyl)-3-methoxyazetidine-3-carbonyl)piperidin-4-yl)-5-methyl-1H-pyrazol-4-yl)-4-methoxypyrazolo [1,5-a]pyridine-3-carbonitrile] | 0.002 µM | 0.077 µM | 0.1008 min⁻¹ | 0.108 µM | 1.83 µM
6 | COc1cc(-c2cnn(C3CCN(CC4(OC)CN(C(=O)/C=C/CN(C)C)C4)CC3)c2C)cn2ncc(C#N)c12 [Example 159, (E)-6-(1-(1-((1-(4-(dimethylamino)but-2-enoyl)-3-methoxyazetidin-3-yl)methyl)piperidin-4-yl)-5-methyl-1H-pyrazol-4-yl)-4-methoxypyrazolo [1,5-a]pyridine-3-carbonitrile] | 0.003 µM | 0.07 µM | 0.0605 min⁻¹ | 0.03 µM | 0.737 µM
7 | COc1cc(-c2cnn(C3CN(C(=O)C4(F)CN(C(=O)/C=C/CN(C)C)C4)C3)c2C)cn2ncc(C#N)c12 [Example 160, (E)-6-(1-(1-(1-(4-(dimethylamino)but-2-enoyl)-3-fluoroazetidine-3-carbonyl)azetidin-3-yl)-5-methyl-1H-pyrazol-4-yl)-4-methoxypyrazolo [1,5-a]pyridine-3-carbonitrile] | 0.016 µM | 0.248 µM | 0.08254 min⁻¹ | 0.481 µM | 3.28 µM
8 | COc1cc(-c2c(C)nn(C3CCN(C(=O)C4(F)CN(C(=O)/C=C/CN(C)C)C4)CC3)c2C)cn2ncc(C#N)c12 [Example 161, (E)-6-(1-(1-(1-(4-(dimethylamino)but-2-enoyl)-3-fluoroazetidine-3-carbonyl)piperidin-4-yl)-3,5-dimethyl-1H-pyrazol-4-yl)-4-methoxypyrazolo [1,5-a]pyridine-3-carbonitrile] | 0.005 µM | 0.154 µM | 0.1129 min⁻¹ | 0.133 µM | 1.62 µM
9 | CCc1c(-c2cc(OC)c3c(C#N)cnn3c2)cnn1C1CCN(C(=O)C2(F)CN(C(=O)/C=C/CN(C)C)C2)CC1 [Example 162, (E)-6-(1-(1-(1-(4-(dimethylamino)but-2-enoyl)-3-fluoroazetidine-3-carbonyl)piperidin-4-yl)-5-ethyl-1H-pyrazol-4-yl)-4-methoxypyrazolo [1,5-a]pyridine-3-carbonitrile] | 0.048 µM | 0.311 µM | 0.07862 min⁻¹ | 0.357 µM | 1.44 µM
10 | COc1cc(-c2nn(C3CCN(C(=O)C4(F)CN(C(=O)/C=C/CN(C)C)C4)CC3)nc2C)cn2ncc(C#N)c12 [Example 163, (E)-6-(2-(1-(1-(4-(dimethylamino)but-2-enoyl)-3-fluoroazetidine-3-carbonyl)piperidin-4-yl)-5-methyl-2H-1,2,3-triazol-4-yl)-4-methoxypyrazolo [1,5-a]pyridine-3-carbonitrile] | 0.034 µM | 2.21 µM | 0.03573 min⁻¹ | 0.207 µM | 1.65 µM
11 | COc1cc(-c2nnn(C3CCN(C(=O)C4(F)CN(C(=O)/C=C/CN(C)C)C4)CC3)c2C)cn2ncc(C#N)c12 [Example 164, (E)-6-(1-(1-(1-(4-(dimethylamino)but-2-enoyl)-3-fluoroazetidine-3-carbonyl)piperidin-4-yl)-5-methyl-1H-1,2,3-triazol-4-yl)-4-methoxypyrazolo [1,5-a]pyridine-3-carbonitrile] | 0.003 µM | 0.102 µM | 0.1705 min⁻¹ | 0.188 µM | ≥ 5 µM
12 | COc1cc(-c2ccc(N3CCN(C(=O)C4(F)CN(C(=O)/C=C/CN(C)C)C4)CC3)nc2C)cn2ncc(C#N)c12 [Example 168, (E)-6-(6-(4-(1-(4-(dimethylamino)but-2-enoyl)-3-fluoroazetidine-3-carbonyl)piperazin-1-yl)-2-methylpyridin-3-yl)-4-methoxypyrazolo [1,5-a]pyridine-3-carbonitrile] | 0.034 µM | 0.148 µM | 0.06456 min⁻¹ | 0.099 µM | 0.502 µM
13 | COc1cc(-c2cnc(N3CCN(C(=O)C4(F)CN(C(=O)/C=C/CN(C)C)C4)CC3)cc2C)cn2ncc(C#N)c12 [Example 169, (E)-6-(6-(4-(1-(4-(dimethylamino)but-2-enoyl)-3-fluoroazetidine-3-carbonyl)piperazin-1-yl) -4-methylpyridin-3-yl)-4-methoxypyrazolo [1,5-a]pyridine-3-carbonitrile] | 0.049 µM | 0.156 µM | 0.08 min⁻¹ | 0.175 µM | 0.751 µM
14 | COc1cc(-c2cnn(C3CCN(C(=O)C4(F)CN(C(=O)/C=C/CN(C)C)C4)CC3)c2C)cn2ncc(Cl)c12 [Example 170, (E)-1-(3-(4-(4-(3-chloro-4-methoxypyrazolo [1,5-a]pyridin-6-yl)-5-methyl-1H-pyrazol-1-yl)piperidine-1-carbonyl)-3-fluoroazetidin-1-yl)-4-(dimethylamino)but-2-en-1-one] | 0.005 µM | 0.903 µM | 0.1388 min⁻¹ | 0.055 µM | 0.915 µM
15 | COc1cc(-c2cnn(C3CCN(C(=O)C4(OC)CN(C(=O)/C=C/CN(C)C)C4)CC3)c2C)cn2ncc(Cl)c12 [Example 171, (E)-1-(3-(4-(4-(3-chloro-4-methoxypyrazolo [1,5-a]pyridin-6-yl)-5-methyl-1H-pyrazol-1-yl)piperidine-1-carbonyl)-3-methoxyazetidin-1-yl)-4-(dimethylamino)but-2-en-1-one] | 0.005 µM | 0.111 µM | 0.0804 min⁻¹ | 0.05 µM | 0.888 µM
16 | C=CC(=O)N1CC(O)(C(=O)N2CCC(n3ncc(-c4cc(OC)c5c(Cl)cnn5c4)c3C)CC2)C1 [Example 172, 1-(3-(4-(4-(3-chloro-4-methoxypyrazolo [1,5-a]pyridin-6-yl)-5-methyl-1H-pyrazol-1-yl)piperidine-1-carbonyl)-3-hydroxyazetidin-1-yl)prop-2-en-1-one] | 0.025 µM | 0.856 µM | 0.02599 min⁻¹ | 0.171 µM | 3.29 µM
